Laboratory results published in publication PMC9791335 (Heliyon, 2022).

Biological target: lysine-specific demethylase 1 (LSD1) (Homo sapiens, UniProt O60341)
Test: HRP-coupled fluorescence
Type: biochemical

% inhibition at 10 μM: 76.5
SMILES: COc1cc(CNC(=O)CCCCCCC(C)C)ccc1O [DHC, dihydrocapsaicin]
